From the NIST ThermoML archive (doi:10.1016/j.fluid.2006.05.015)
Numbers after ± are expanded uncertainties.

Conditions: Fluid (supercritical or subcritical phases), Constant-volume piezometry

O [water]
Conditions | mass density [kg/m3]
299.25 K, 5182 kPa | 999.2 ± 1.2
299.25 K, 31060 kPa | 1010.4 ± 1.2
349.12 K, 8540 kPa | 977.86 ± 1.2
349.12 K, 24440 kPa | 984.93 ± 1.2
399.57 K, 3183 kPa | 939.45 ± 1.1
399.57 K, 30090 kPa | 952.6 ± 1.2
438.94 K, 6455 kPa | 905.35 ± 1.1
438.94 K, 27860 kPa | 917.35 ± 1.2
494.18 K, 8890 kPa | 844.81 ± 1.1
494.18 K, 29240 kPa | 859.91 ± 1.1
555.43 K, 9803 kPa | 751.67 ± 0.95
555.43 K, 27940 kPa | 777.34 ± 1
617.27 K, 16300 kPa | 603.42 ± 0.79
617.27 K, 28080 kPa | 653.82 ± 0.88
